Data as given in US20140323300A1, “HERBICIDAL COMPOUNDS” (SYNGENTA LIMITED, priority 2011, published 2014).

What was measured:
Assay type in all cases: in vivo
Setaria faberi (SETFA) [1] = assay: Post-emergence glasshouse herbicide test; details: post-emergence (sprayed after 8 days cultivation), 1000 g/h, evaluated after 13 days, five point scale
Method: (§1) Seeds of a variety of test species are sown in standard soil in pots (Alopecurus myosuroides (ALOMY), Setaria faberi (SETFA), Echinochloa crus-galli (ECHCG), Solanum nigrum (SOLNI), Amaranthus retoflexus (AMARE), Ipomoea hederacea (IPOHE)). After cultivation for one day (pre-emergence) or after 8 days cultivation (post-emergence) under controlled conditions in a glasshouse (at 24/16° C., day/night; 14 hours light; 65% humidity), the plants are sprayed with an aqueous spray solution derived from the formulation of the technical active ingredient in acetone/water (50:50) solution containing 0.5% Tween 20 (polyoxyethelyene sorbitan monolaurate, CAS RN 9005-64-5). Compounds are applied at 1000 g/h. The test plants are then grown in a glasshouse under controlled conditions in a glasshouse (at 24/16° C., day/night; 14 hours light; 65% humidity) and watered twice daily. After 13 days for pre and post-emergence, the test is evaluated for the percentage damage caused to the plant. The biological activities are shown in the following table on a five point scale (5=80-100%; 4=60-79%; 3=40-59%; 2=20-39%; 1=0-19%).

[2] = test system: Amaranthus retoflexus (AMARE); assay: Post-emergence glasshouse herbicide test; details: post-emergence (sprayed after 8 days cultivation), 1000 g/h, evaluated after 13 days, five point scale
Method: as §1

[3] = test system: Echinochloa crus-galli (ECHCG); assay: Post-emergence glasshouse herbicide test; details: post-emergence (sprayed after 8 days cultivation), 1000 g/h, evaluated after 13 days, five point scale
Method: as §1

[4] = test system: Ipomoea hederacea (IPOHE); assay: Post-emergence glasshouse herbicide test; details: post-emergence (sprayed after 8 days cultivation), 1000 g/h, evaluated after 13 days, five point scale
Method: as §1

Solanum nigrum (SOLNI) [5] = assay: Post-emergence glasshouse herbicide test; details: post-emergence (sprayed after 8 days cultivation), 1000 g/h, evaluated after 13 days, five point scale
Method: as §1

[6] = test system: Alopecurus myosuroides (ALOMY); assay: Post-emergence glasshouse herbicide test; details: post-emergence (sprayed after 8 days cultivation), 1000 g/h, evaluated after 13 days, five point scale
Method: as §1

Setaria faberi (SETFA) [7] = assay: Pre-emergence glasshouse herbicide test; details: pre-emergence (sprayed after one day cultivation), 1000 g/h, evaluated after 13 days, five point scale
Method: as §1

[8] = test system: Amaranthus retoflexus (AMARE); assay: Pre-emergence glasshouse herbicide test; details: pre-emergence (sprayed after one day cultivation), 1000 g/h, evaluated after 13 days, five point scale
Method: as §1

[9] = test system: Echinochloa crus-galli (ECHCG); assay: Pre-emergence glasshouse herbicide test; details: pre-emergence (sprayed after one day cultivation), 1000 g/h, evaluated after 13 days, five point scale
Method: as §1

[10] = test system: Ipomoea hederacea (IPOHE); assay: Pre-emergence glasshouse herbicide test; details: pre-emergence (sprayed after one day cultivation), 1000 g/h, evaluated after 13 days, five point scale
Method: as §1

Solanum nigrum (SOLNI) [11] = assay: Pre-emergence glasshouse herbicide test; details: pre-emergence (sprayed after one day cultivation), 1000 g/h, evaluated after 13 days, five point scale
Method: as §1

[12] = test system: Alopecurus myosuroides (ALOMY); assay: Pre-emergence glasshouse herbicide test; details: pre-emergence (sprayed after one day cultivation), 1000 g/h, evaluated after 13 days, five point scale
Method: as §1

SMILES	percentage damage caused to the plant, POST Application SETFA (Setaria faberi (SETFA) [1])	percentage damage caused to the plant, POST Application AMARE [2]	percentage damage caused to the plant, POST Application ECHCG [3]	percentage damage caused to the plant, POST Application IPOHE [4]	percentage damage caused to the plant, POST Application SOLNI (Solanum nigrum (SOLNI) [5])	percentage damage caused to the plant, POST Application ALOMY [6]	percentage damage caused to the plant, PRE Application SETFA (Setaria faberi (SETFA) [7])	percentage damage caused to the plant, PRE Application AMARE [8]	percentage damage caused to the plant, PRE Application ECHCG [9]	percentage damage caused to the plant, PRE Application IPOHE [10]	percentage damage caused to the plant, PRE Application SOLNI (Solanum nigrum (SOLNI) [11])	percentage damage caused to the plant, PRE Application ALOMY [12]
Cc1cnn(-c2ccc(C(F)(F)F)nc2C)c(=O)c1O [Compound 1.020]	5 (5=80-100%)	5 (5=80-100%)	5 (5=80-100%)	5 (5=80-100%)	5 (5=80-100%)	3 (3=40-59%)	5 (5=80-100%)	5 (5=80-100%)	5 (5=80-100%)	5 (5=80-100%)	5 (5=80-100%)	3 (3=40-59%)
CC(=O)NC(C)(C)Cc1cnn(-c2ccc(C(F)(F)F)cc2S(C)(=O)=O)c(=O)c1O [Compound 1.044]	2 (2=20-39%)	5 (5=80-100%)	5 (5=80-100%)	4 (4=60-79%)	4 (4=60-79%)	1 (1=0-19%)	2 (2=20-39%)	5 (5=80-100%)	5 (5=80-100%)	4 (4=60-79%)	4 (4=60-79%)	1 (1=0-19%)
CCc1cnn(-c2ccc(C(F)(F)F)nc2C)c(=O)c1O [Compound 1.022]	4 (4=60-79%)	5 (5=80-100%)	5 (5=80-100%)	4 (4=60-79%)	5 (5=80-100%)	4 (4=60-79%)	4 (4=60-79%)	5 (5=80-100%)	5 (5=80-100%)	4 (4=60-79%)	5 (5=80-100%)	4 (4=60-79%)
Cc1c(-n2ncc([S+](C)[O-])c(O)c2=O)ccc(S(C)(=O)=O)c1C1=NOCC1 (stereo not drawn) [Compound 1.043]	3 (3=40-59%)	5 (5=80-100%)	3 (3=40-59%)	3 (3=40-59%)	4 (4=60-79%)	1 (1=0-19%)	3 (3=40-59%)	5 (5=80-100%)	3 (3=40-59%)	3 (3=40-59%)	4 (4=60-79%)	1 (1=0-19%)
Cc1nc(C(F)(F)F)ccc1-n1nccc(O)c1=O.O=C(O)C(F)(F)F [Compound 1.027]	4 (4=60-79%)	4 (4=60-79%)	5 (5=80-100%)	5 (5=80-100%)	5 (5=80-100%)	1 (1=0-19%)	4 (4=60-79%)	4 (4=60-79%)	5 (5=80-100%)	5 (5=80-100%)	5 (5=80-100%)	1 (1=0-19%)
C=C(C)c1cnn(-c2ccc(S(C)(=O)=O)c(C3=NOCC3)c2C)c(=O)c1O [Compound 1.007]	5 (5=80-100%)	5 (5=80-100%)	5 (5=80-100%)	5 (5=80-100%)	5 (5=80-100%)	5 (5=80-100%)	3 (3=40-59%)	5 (5=80-100%)	5 (5=80-100%)	5 (5=80-100%)	4 (4=60-79%)	3 (3=40-59%)
CSc1cnn(-c2ccc(C(F)(F)F)cc2S(C)(=O)=O)c(=O)c1O [Compound 1.034]	3 (3=40-59%)	5 (5=80-100%)	4 (4=60-79%)	4 (4=60-79%)	5 (5=80-100%)	1 (1=0-19%)	3 (3=40-59%)	5 (5=80-100%)	4 (4=60-79%)	4 (4=60-79%)	5 (5=80-100%)	1 (1=0-19%)
CS(=O)(=O)c1cc(C(F)(F)F)ccc1-n1ncc(Br)c(O)c1=O [Compound 1.032]	5 (5=80-100%)	5 (5=80-100%)	5 (5=80-100%)	5 (5=80-100%)	5 (5=80-100%)	5 (5=80-100%)	5 (5=80-100%)	5 (5=80-100%)	5 (5=80-100%)	5 (5=80-100%)	5 (5=80-100%)	5 (5=80-100%)
CS(=O)(=O)c1cc(C(F)(F)F)ccc1-n1ncc(S(C)(=O)=O)c(O)c1=O [Compound 1.042]	1 (1=0-19%)	2 (2=20-39%)	1 (1=0-19%)	1 (1=0-19%)	2 (2=20-39%)	1 (1=0-19%)	1 (1=0-19%)	2 (2=20-39%)	1 (1=0-19%)	1 (1=0-19%)	2 (2=20-39%)	1 (1=0-19%)
C=Cc1cnn(-c2ccc(C(F)(F)F)cc2S(C)(=O)=O)c(=O)c1O [Compound 1.053]	5 (5=80-100%)	5 (5=80-100%)	5 (5=80-100%)	5 (5=80-100%)	5 (5=80-100%)	4 (4=60-79%)	5 (5=80-100%)	5 (5=80-100%)	5 (5=80-100%)	5 (5=80-100%)	5 (5=80-100%)	4 (4=60-79%)
